Experimental data published in the supplement of paper PMC10307832.

Legend:
Experiment in all cases: relative viability (nuclei count vs DMSO), 5 days (fraction); higher = more cells survive
[1] = compound: Cc1ccc(C(=O)Nc2ccc(CN3CCN(C)CC3)c(C(F)(F)F)c2)cc1C#Cc1cnc2cccnn12 [Ponatinib] + Cc1nc(NC(=O)N2CCC[C@H]2C(N)=O)sc1-c1ccnc(C(C)(C)C(F)(F)F)c1 [Alpelisib] (partner 2 µM)
Method in brief: (§1)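 For relative viability, nuclei counts in treated wells were divided by those in vehicle wells. Lung cancer cell lines had been pin-tool dosed in 1536-well plates the day after seeding and cultured for 5 days, then fixed and stained in one step (final 0.05% Triton X-100, 1% formaldehyde, 1 ug/ml Hoechst) and imaged at 4×. Doses were one drug alone or a fixed anchor-drug dose plus five library-drug doses (not always all listed) in √10 steps, and values are duplicate-plate medians.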

[2] = compound: Cc1ccc(C(=O)Nc2ccc(CN3CCN(C)CC3)c(C(F)(F)F)c2)cc1C#Cc1cnc2cccnn12 [Ponatinib] + O=C(CCCCCCC(=O)Nc1ccccc1)NO [Vorinostat] (partner 1 µM)
Method in brief: as §1

[3] = compound: Cc1ccc(Nc2nccc(N(C)c3ccc4c(C)n(C)nc4c3)n2)cc1S(N)(=O)=O [Pazopanib] + O=C(CCCCCCC(=O)Nc1ccccc1)NO [Vorinostat] (partner 1 µM)
Method in brief: as §1

[4] = compound: Cc1ccc(C(=O)Nc2ccc(CN3CCN(C)CC3)c(C(F)(F)F)c2)cc1C#Cc1cnc2cccnn12 [Ponatinib] + COc1cc2c(Oc3ccc(NC(=O)C4(C(=O)Nc5ccc(F)cc5)CC4)cc3F)ccnc2cc1OCCCN1CCOCC1 [Foretinib] (partner 0.25 µM)
Method in brief: as §1

UMC-11
relative viability ([1]; first compound 0.002 µM): 1.07
relative viability ([1]; first compound 0.006325 µM): 1.04
relative viability ([1]; first compound 0.06325 µM): 1.01
relative viability ([1]; first compound 0.2 µM): 0.951
relative viability ([2]; first compound 0.002 µM): 0.411
relative viability ([2]; first compound 0.006325 µM): 0.403
relative viability ([2]; first compound 0.06325 µM): 0.51
relative viability ([2]; first compound 0.2 µM): 0.486
relative viability ([3]; first compound 0.01 µM): 0.353
relative viability ([3]; first compound 0.03162 µM): 0.306
relative viability ([3]; first compound 0.1 µM): 0.368
relative viability ([3]; first compound 0.3162 µM): 0.371
relative viability ([3]; first compound 1 µM): 0.446
relative viability ([4]; first compound 0.002 µM): 1.06
relative viability ([4]; first compound 0.006325 µM): 1.04
relative viability ([4]; first compound 0.06325 µM): 1.25
relative viability ([4]; first compound 0.2 µM): 1.03
